Data as given in patent US20240239752A1, “BICYCLIC HETEROAROMATIC INHIBITORS OF KLK5” (BioCryst Pharmaceuticals, Inc., priority 2021, published 2024).

Target: T1, recombinant human KLK5 (Homo sapiens, UniProt Q9Y337)
T1 construct: purchased Novoprotein or R&D Systems C415 or 1108-SE
T1 sequence (Q9Y337 23-293): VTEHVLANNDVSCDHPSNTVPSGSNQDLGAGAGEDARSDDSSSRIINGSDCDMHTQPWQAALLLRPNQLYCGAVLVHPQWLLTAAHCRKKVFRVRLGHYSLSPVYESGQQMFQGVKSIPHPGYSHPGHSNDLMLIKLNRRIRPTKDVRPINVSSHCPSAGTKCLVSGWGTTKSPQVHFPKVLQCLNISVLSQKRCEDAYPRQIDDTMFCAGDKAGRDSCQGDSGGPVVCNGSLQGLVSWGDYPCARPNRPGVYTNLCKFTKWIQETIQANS
Experiment: Kallikrein (KLK) 5 enzymatic assay (Boc-VPR-AMC fluorogenic substrate)
Assay type: biochemical
Details: recombinant human KLK5 0.1 μg/well, Boc-VPR-AMC 100 μM, pH 7.5, room temperature, 1% DMSO; tested a minimum of three times
Method in brief: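 Fluorogenic rate assay at pH 7.5 (0.1 M NaH2PO4, 1% DMSO, room temperature), run at least three times per compound. Compound was premixed with 0.1 μg/well recombinant human KLK5 before adding 100 μM Boc-VPR-AMC; AMC release was read at ex 380/em 460 nm, and IC50 derived from inhibition of rate vs DMSO control.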

## Nc1nccc2c(-c3ccc4c(c3)c(Cn3ccc5cccc(C(=O)O)c53)nn4C3CCOC3)cccc12 (centres unmarked) [Compound 274e, 1-((5-(1-aminoisoquinolin-5-yl)-1-(tetrahydrofuran-3-yl)-1H-indazol-3-yl)methyl)-1H-indole-7-carboxylic acid]
  IC50: 1000 to 10000 nM

## CCOC(=O)N1CC[C@H](n2nc(COc3cccc(C)c3CC(=O)O)c3cc(-c4cccc5c(N)nccc45)ccc32)C1 [Compound 344b, (S)-2-(2-((5-(1-aminoisoquinolin-5-yl)-1-(1-(ethoxycarbonyl)pyrrolidin-3-yl)-1H-indazol-3-yl)methoxy)-6-methylphenyl)acetic acid]
  IC50: < 1000 nM
